Results published in article PMC12223310, “Mining the heparinome for cryptic antimicrobial peptides that selectively kill Gram-negative bacteria” (Molecular Systems Biology, 2025).
Values after ≈ are worked out from the molar mass of the structure shown. Like-named read-outs stand apart in the source and are kept apart here. Ends that are not written are not given here.

Key:
[1] = test system: Listeria monocytogenes; type: cell-based, Listeria monocytogenes ATCC 19112
Experimental: (§1) Antimicrobial activities were determined by the microtiter broth dilution method recommended by the National Committee of Laboratory Safety and Standards (NCLSS), adapted for AMPs (Wiegand et al, [2008]). Briefly, overnight bacterial cell cultures were brought to an exponential growth state (OD600 = 0.4) in MH broth and diluted to a final concentration of 5 × 10^5 CFU/mL. In all, 1:2 peptide serial dilutions were prepared in 96-well polypropylene plates (Greiner, Frickenhausen, Germany), in MH medium containing 0.2% (w/v) of bovine serum albumin (BSA) and 0.02% glacial acetic acid. […] The lowest concentration with no colonies was taken as MBC. The results are the average of three independent studies.

[2] = test system: Escherichia coli; type: cell-based, Escherichia coli BW25113
Experimental: as §1

[3] = in vitro; type: cell-based; conditions: human, MRC-5 cells
Experimental: (§2) Toxicity in MRC-5 and HepG2 cells was tested by the MTT assay, as described (Bello-Madruga et al, [2023]). Cell lines were maintained in Eagle’s minimum essential medium (MEMα) supplemented with 10% fetal bovine serum (FBS). Cells were cultured in 75-cm^2 flasks and then transferred to polystyrene 96-well plates, at 3 × 10^4 cells per well, and incubated overnight for attachment to the well surface. Then culture media was removed and 1:2 peptide serial dilutions in MEMα were added to each well and later incubated for 4 h. After incubation, peptides were removed and 100 μL of 0.5 mg/mL MTT staining solution in MEMα supplemented with 10% FBS was added to cells and incubated for 1.5 h at 37 °C. Formazan crystals in living cells were detected after disruption with 200 μL dimethyl sulfoxide and then absorbance was measured at 570 nm in a Tecan Spark instrument (Tecan, Männedorf, Switzerland). The results are the average of three independent studies.

[4] = test system: Acinetobacter baumannii; type: cell-based, Acinetobacter baumannii ATCC 15308
Experimental: as §1

[5] = test system: Pseudomonas sp (Pseudomonas aeruginosa); type: cell-based, Pseudomonas aeruginosa ATCC 15915
Experimental: as §1

[6] = test system: Staphylococcus aureus; type: cell-based, Staphylococcus aureus ATCC 12600
Experimental: as §1

[7] = Cytotoxicity, MTT assay; type: cell-based; conditions: human, HepG2 cells, 4 h peptide incubation in MEMα, average of three studies, read-out: LC50 (HepG2 cells)
Experimental: as §2

[8] = test system: Enterococcus faecium; type: cell-based, Enterococcus faecium ATCC 19434
Experimental: as §1

[9] = test system: E. coli CFT073; type: cell-based
Experimental: as §1

[10] = test system: A. baumannii 3880; type: cell-based
Experimental: as §1

[11] = test system: A. baumannii 3878; type: cell-based
Experimental: as §1

[12] = test system: E. coli 1166795; type: cell-based
Experimental: as §1

[13] = test system: P. aeruginosa 827632; type: cell-based
Experimental: as §1

[14] = test system: P. aeruginosa 827651; type: cell-based
Experimental: as §1

[15] = test system: horse erythrocytes; type: cell-based
Experimental: Peptide toxicity was tested on horse erythrocytes (Sandín et al, [2021]). Horse defibrinated blood was washed three times in phosphate buffer saline (PBS) pH 7.2 by centrifugation at 3× 3000 rpm for 10 min, to remove excess hemoglobin in the supernatant and then diluted tenfold in PBS. Next, 50 μL of erythrocytes were added to a 1.5 mL polypropylene tube and incubated with 50 μL of a 1:2 peptide serial dilution in PBS. An erythrocyte disruption (ED) control was prepared by adding 50 μL of 0.1% TritonX-100 in PBS instead of the peptides and an intact erythrocyte (IC) control by adding 50 μL of PBS alone. All samples and controls were incubated for 2 h at 37 °C. Samples were centrifuged at 3000 rpm for 3 min, and the supernatants were transferred to a polystyrene 96-well plate and inspected for ED by reading the absorbance at 540 nm in a Tecan Spark instrument (Tecan, Männedorf, Switzerland). The results are the average of three independent studies. The hemolysis percentage was calculated as: Hemolysis%=Sample−IC/ED−IC×100

Compound	MBC L. monocytogenes [1]	MIC L. monocytogenes [1]	MBC A. baumannii [4]	MIC A. baumannii [4]	MBC Pseudomonas sp [5]	MIC Pseudomonas sp [5]	MBC S. aureus [6]	MIC S. aureus [6]	CC50 at 4 h [7]	MBC E. faecium [8]	MIC E. faecium [8]	MBC E. coli [2]	MIC E. coli [2]	CC50 at 4 h [3]	MBC E. coli CFT073 [9]	MIC E. coli CFT073 [9]	MBC A. baumannii 3880 [10]	MIC A. baumannii 3880 [10]	MBC A. baumannii 3878 [11]	MIC A. baumannii 3878 [11]	also measured
CC[C@H](C)[C@H](NC(=O)[C@H](CCCCN)NC(=O)[C@H](CCC(=O)O)NC(=O)[C@H](CCCCN)NC(=O)[C@H](CO)NC(=O)[C@H](CCCCN)NC(=O)[C@H](CCCNC(=N)N)NC(=O)[C@H](Cc1ccccc1)NC(=O)[C@H](Cc1ccccc1)NC(=O)[C@H](CC(=O)O)NC(=O)CNC(=O)[C@H](CC(C)C)NC(=O)[C@@H](N)CC(C)C)C(=O)NCC(=O)N[C@@H](CCCCN)C(=O)N[C@@H](CCC(=O)O)C(=O)N[C@@H](Cc1ccccc1)C(=O)N[C@@H](CCCCN)C(=O)N[C@@H](CCCNC(=N)N)C(=O)N[C@H](C(=O)N[C@H](C(=O)N[C@@H](CCC(N)=O)C(=O)N[C@@H](CCCNC(=N)N)C(=O)N[C@H](C(=O)N[C@@H](CCCCN)C(=O)N[C@@H](CC(=O)O)C(=O)N[C@@H](Cc1ccccc1)C(=O)N[C@@H](CC(C)C)C(=O)N[C@@H](CCCNC(=N)N)C(=O)N[C@@H](CC(N)=O)C(=O)N[C@@H](CC(C)C)C(=O)N[C@H](C(=O)N1CCC[C@H]1C(=O)N[C@@H](CCCNC(=N)N)C(=O)N[C@H](C(=O)N[C@@H](CCC(=O)O)C(=O)N[C@@H](CO)C(N)=O)[C@@H](C)O)C(C)C)[C@@H](C)CC)C(C)C)[C@@H](C)CC [LL-37, reference compound]	3.1 µM (≈ 13.9 µg/mL)	0.8 µM (≈ 3.59 µg/mL)	6.3 µM (≈ 28.3 µg/mL)	6.3 µM (≈ 28.3 µg/mL)	0.8 µM (≈ 3.59 µg/mL)	0.8 µM (≈ 3.59 µg/mL)	25 µM (≈ 112 µg/mL)	25 µM (≈ 112 µg/mL)	53 µM	3.1 µM (≈ 13.9 µg/mL)	0.8 µM (≈ 3.59 µg/mL)										MBC E. coli ([2]; MIC wells plated on LB agar, overnight 37 °C, no colonies, average of three studies): 3.1 µM (≈ 13.9 µg/mL); MIC E. coli ([2]; microtiter broth dilution, MH broth, 5 × 10^5 CFU/mL, overnight 37 °C, average of three studies): 1.6 µM (≈ 7.19 µg/mL); CC50 at 4 h ([3]; MTT, 4 h peptide incubation in MEMα, average of three studies, read-out: LC50 (MRC-5 cells)): 26 µM
FRFKRKLPKYLLF-NH2 [HBP-3]	12.5 µM	6.3 µM	0.8 µM	0.8 µM	6.3 µM	6.3 µM	50 µM	25 µM	> 200 µM	>100/ > 100 µM	>100/ > 100 µM	3.1 µM	3.1 µM	> 200 µM	25 µM	12.5 µM	6.3 µM	6.3 µM	6.3 µM	6.3 µM	MBC E. coli 1166795 [12]: 1.6 µM; MIC E. coli 1166795 [12]: 1.6 µM; MBC P. aeruginosa 827632 [13]: 25 µM; MIC P. aeruginosa 827632 [13]: 25 µM; MBC P. aeruginosa 827651 [14]: 12.5 µM; MIC P. aeruginosa 827651 [14]: 12.5 µM
GWKDKKSYRWFLQHRPQVGYIRVRFY-NH2 [HBP-4]	3.1 µM	1.6 µM	0.8 µM	0.8 µM	0.8 µM	0.8 µM	12.5 µM	3.1 µM	38 µM	50 µM	12.5 µM	0.2 µM	0.2 µM	35 µM	1.6 µM	0.8 µM	1.6 µM	1.6 µM	0.8 µM	0.8 µM	MBC E. coli 1166795 [12]: < 0.1 µM; MIC E. coli 1166795 [12]: < 0.1 µM; MBC P. aeruginosa 827632 [13]: 6.3 µM; MIC P. aeruginosa 827632 [13]: 6.3 µM; MBC P. aeruginosa 827651 [14]: 6.3 µM; MIC P. aeruginosa 827651 [14]: 3.1 µM
HNLFRKLTAALFRANFGYTLRSV-NH2 [ΔCPC’]		3.1 µM		1.6 µM		1.6 µM		6.3 µM					1.6 µM								
HNLFRKLTHQLFRRNFGYTLRSV-NH2 [Peptide R10]		1.6 µM		0.4 µM		0.8 µM		6.3 µM					0.4 µM								
HNLFRKLTHRLFRQNFGYTLRSV-NH2 [Peptide R14]		3.1 µM		0.4 µM		0.4 µM		6.3 µM					0.4 µM								
HNLFRKLTHRLFRRNFGYTL-NH2 [HBP-5 [1–20]]		1.6 µM		0.4 µM		0.4 µM		6.3 µM					0.4 µM	63 ± 1 µM							Hemolysis (250 µM peptide) [15]: 24 ± 2
RFYLSKKKWVMVP-NH2 [HBP-2]	> 100 µM	37.5 µM	50 µM	50 µM	50 µM	25 µM	>100/ > 100 µM	>100/ > 100 µM	> 200 µM	>100/ > 100 µM	>100/ > 100 µM	25 µM	12.5 µM	> 200 µM	100 µM	50 µM	> 50 µM	> 50 µM	50 µM	50 µM	MBC E. coli 1166795 [12]: 12.5 µM; MIC E. coli 1166795 [12]: 12.5 µM; MBC P. aeruginosa 827632 [13]: > 100 µM; MIC P. aeruginosa 827632 [13]: > 100 µM; MBC P. aeruginosa 827651 [14]: > 100 µM; MIC P. aeruginosa 827651 [14]: > 100 µM
RWHLTHRPKTGYIRVLVH-NH2 [HBP-1]	12.5 µM	6.3 µM	1.6 µM	1.6 µM	3.1 µM	3.1 µM	> 100 µM	50 µM	> 200 µM	≥100/ > 100 µM	≥100/ > 100 µM	1.6 µM	1.6 µM	> 200 µM	3.1 µM	3.1 µM	12.5 µM	12.5 µM	1.6 µM	1.6 µM	MBC E. coli 1166795 [12]: 1.6 µM; MIC E. coli 1166795 [12]: 1.6 µM; MBC P. aeruginosa 827632 [13]: 25 µM; MIC P. aeruginosa 827632 [13]: 25 µM; MBC P. aeruginosa 827651 [14]: 50 µM; MIC P. aeruginosa 827651 [14]: 25 µM
